Tested on: P12-Ichikawa
Experiment: cell viability relative to DMSO control; higher = less cytotoxic
Conditions: 48 h
In short: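 Cells were incubated for 48 h at 37°C before CellTiter-Glo One luminescence was read. The cells were NOMO1 or SEM (500 cells/well) or P12-Ichikawa (1000 cells/well) leukemia cells, adapted for at least four passages in each medium and seeded in 1536-well plates (5 μl). Dosing used library compounds in DMSO applied by pin over 11 threefold points, 47 μM to 0.79 nM. Viability is the per-plate percentage of DMSO wells, with cell-free wells as background.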

[1] = HPLM + 10% dialyzed FBS, 0.000781 µM
[2] = HPLM + 10% dialyzed FBS, 0.00234 µM
[3] = HPLM + 10% dialyzed FBS, 0.00702 µM
[4] = HPLM + 10% dialyzed FBS, 0.0211 µM
[5] = HPLM + 10% dialyzed FBS, 0.0632 µM
[6] = HPLM + 10% dialyzed FBS, 0.19 µM
[7] = HPLM + 10% dialyzed FBS, 0.569 µM
[8] = HPLM + 10% dialyzed FBS, 1.71 µM
[9] = HPLM + 10% dialyzed FBS, 5.12 µM
[10] = HPLM + 10% dialyzed FBS, 15.4 µM
[11] = HPLM + 10% dialyzed FBS, 46.1 µM
[12] = RPMI 5 mM glucose + 10% FBS, 0.000781 µM
[13] = RPMI 5 mM glucose + 10% FBS, 0.00234 µM
[14] = RPMI 5 mM glucose + 10% FBS, 0.00702 µM
[15] = RPMI 5 mM glucose + 10% FBS, 0.0211 µM
[16] = RPMI 5 mM glucose + 10% FBS, 0.0632 µM
[17] = RPMI 5 mM glucose + 10% FBS, 0.19 µM
[18] = RPMI 5 mM glucose + 10% FBS, 0.569 µM
[19] = RPMI 5 mM glucose + 10% FBS, 1.71 µM
[20] = RPMI 5 mM glucose + 10% FBS, 5.12 µM
[21] = RPMI 5 mM glucose + 10% FBS, 15.4 µM
[22] = RPMI 5 mM glucose + 10% FBS, 46.1 µM
[23] = RPMI 5 mM glucose + 10% dialyzed FBS, 0.000781 µM
[24] = RPMI 5 mM glucose + 10% dialyzed FBS, 0.00234 µM
[25] = RPMI 5 mM glucose + 10% dialyzed FBS, 0.00702 µM
[26] = RPMI 5 mM glucose + 10% dialyzed FBS, 0.0211 µM
[27] = RPMI 5 mM glucose + 10% dialyzed FBS, 0.0632 µM
[28] = RPMI 5 mM glucose + 10% dialyzed FBS, 0.19 µM
[29] = RPMI 5 mM glucose + 10% dialyzed FBS, 0.569 µM
[30] = RPMI 5 mM glucose + 10% dialyzed FBS, 1.71 µM
[31] = RPMI 5 mM glucose + 10% dialyzed FBS, 5.12 µM
[32] = RPMI 5 mM glucose + 10% dialyzed FBS, 15.4 µM
[33] = RPMI 5 mM glucose + 10% dialyzed FBS, 46.1 µM

Row | SMILES | cell viability [1] [%] | cell viability [2] [%] | cell viability [3] [%] | cell viability [4] [%] | cell viability [5] [%] | cell viability [6] [%] | cell viability [7] [%] | cell viability [8] [%] | cell viability [9] [%] | cell viability [10] [%] | cell viability [11] [%] | cell viability [12] [%] | cell viability [13] [%] | cell viability [14] [%] | cell viability [15] [%] | cell viability [16] [%] | cell viability [17] [%] | cell viability [18] [%] | cell viability [19] [%] | cell viability [20] [%] | cell viability [21] [%] | cell viability [22] [%] | cell viability [23] [%] | cell viability [24] [%] | cell viability [25] [%] | cell viability [26] [%] | cell viability [27] [%] | cell viability [28] [%] | cell viability [29] [%] | cell viability [30] [%] | cell viability [31] [%] | cell viability [32] [%] | cell viability [33] [%]
1 | CCC(C)SSc1ncc[nH]1 (centres undefined) | 91.9 | 99.9 | 97.1 | 105 | 98.2 | 103 | 94.9 | 111 | 101 | 69.5 | 10.6 | 92.8 | 102 | 91.1 | 90 | 96.1 | 95 | 93.8 | 98.1 | 99.7 | 62.1 | 6.08 | 92 | 91.4 | 93.5 | 90.4 | 90.1 | 95.8 | 89.9 | 97.6 | 92 | 34.8 | 5.7
2 | COC[C@H]1OC(=O)C2=COC3=C2[C@@]1(C)\C4=C(C5CCC(=O)[C@@]5(C)C[C@H]4OC(C)=O)/C3=O (some centres undefined) | 93.1 | 98.8 | 104 | 11.9 | 108 | 113 | 107 | 107 | 110 | 99.1 | 101 | 83.8 | 99.7 | 98.7 | 12.2 | 98.1 | 93.6 | 97.3 | 101 | 94.3 | 97 | 82 | 85.8 | 90 | 97.6 | 32.6 | 99.8 | 101 | 95.1 | 96.4 | 102 | 93.7 | 77
3 | COC1=NC(=NC(=C1N\C2=N\CCN2)Cl)C | 87 | 90 | 83.9 | 98.2 | 94.8 | 94.1 | 93.4 | 95 | 93.9 | 103 | 109 | 84.1 | 95.6 | 88.3 | 95.3 | 100 | 94.9 | 101 | 95.5 | 82.6 | 93.4 | 107 | 83.3 | 91.6 | 83.6 | 95.1 | 89.6 | 87.7 | 91.4 | 88.6 | 84.5 | 94 | 87.5

— the supplement of paper PMC11451515
